Our source for the EC50, Ki and Emax values is patent publication US20230265151A1, “GIP/GLP1 CO-AGONIST COMPOUNDS” (priority 2020, published 2023).

The target of assay [1] is T1, hGCGR (Homo sapiens, UniProt P47871).
T1 construct: expressed in transfected cells
Put plainly: Functional cAMP formation (HTRF) in HEK-293 clonal cells expressing hGCGR, 0.1% bovine casein, without or with 1.0% human serum albumin. It counts as cell-based. The procedure, abridged:
(§1)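 Cells were stimulated with peptide for 30 min at 37° C, then intracellular cAMP was measured by competitive HTRF (665/620 nm ratio) and converted to nM using a cAMP standard curve. Relative EC50 and Emax came from four-parameter logistic fits of percent maximal response against peptide concentration.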

Assay [2] has as its target T2, human GIP receptor (hGIPR) (Homo sapiens, UniProt P48546).
T2 construct: expressed in transfected cells; crude membranes
T2 sequence (P48546 22-466): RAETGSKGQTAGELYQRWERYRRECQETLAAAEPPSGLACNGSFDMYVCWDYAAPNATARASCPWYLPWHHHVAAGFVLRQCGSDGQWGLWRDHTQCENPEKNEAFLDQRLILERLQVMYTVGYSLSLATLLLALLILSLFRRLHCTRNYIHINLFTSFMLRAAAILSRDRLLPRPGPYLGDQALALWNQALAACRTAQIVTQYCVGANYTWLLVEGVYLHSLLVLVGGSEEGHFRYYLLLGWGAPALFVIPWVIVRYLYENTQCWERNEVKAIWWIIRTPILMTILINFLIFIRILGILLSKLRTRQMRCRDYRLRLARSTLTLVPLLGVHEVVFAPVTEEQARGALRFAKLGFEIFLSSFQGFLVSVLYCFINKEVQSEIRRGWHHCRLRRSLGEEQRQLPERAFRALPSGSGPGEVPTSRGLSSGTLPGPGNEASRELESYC
In words: [125I]-GIP binding, SPA with membranes of CHO cells expressing hGIPR. The method, then: Two methods are used for the preparation of crude cell membranes.
Method 1: Frozen cell pellets are lysed on ice in hypotonic buffer containing 50 mM Tris HCl, pH 7.5, and Roche Complete™ Protease Inhibitors with EDTA. […] The homogenate is centrifuged at 4° C. at 1100 × g for 10 minutes. The supernatant is collected and stored on ice while the pellets are resuspended in homogenization buffer and rehomogenized as described above. The homogenate is centrifuged at 1100 × g for 10 minutes. The second supernatant is combined with the first supernatant and centrifuged at 35000 × g for 1 hour at 4° C. The resulting membrane pellet is resuspended in homogenization buffer containing protease inhibitors at approximately 1 to 3 mg/mL, quick frozen in liquid nitrogen and stored as aliquots in a -80° C. freezer until use.
The homogenate is centrifuged at 4° C. at 1800 × g for 15 minutes. The supernatant is collected and stored on ice while the pellets are resuspended in homogenization buffer (without DNAse I) and rehomogenized as described above. The homogenate is centrifuged at 1800 × g for 15 minutes. The second supernatant is combined with the first supernatant and centrifuged an additional time at 1800 × g for 15 minutes. The overall supernatant is then centrifuged at 25000 × g for 30 minutes at 4° C. The resulting membrane pellet is resuspended in homogenization buffer (without DNAse I) containing protease inhibitors at approximately 1 to 3 mg/mL and stored as aliquots in a -80° C. freezer until use.
The binding buffer contains 25 mM HEPES, pH 7.4, 2.5 mM CaCl2, 1 mM MgCl2, 0.1% (w/v) bacitracin, 0.003% (w/v) TWEEN®-20, and Roche Complete™ Protease Inhibitors without EDTA. Peptides and GIP are thawed and 3 fold serially diluted in 100% DMSO (10 point concentration response curves). […] Plates are sealed and mixed on a plate shaker (setting 6) for 1 minute and read with a PerkinElmer Trilux MicroBeta® scintillation counter after 2.5 to 12 hours of incubation/settling time at room temperature.
Raw CPM data for concentration curves of peptides, Gcg, GLP-1, or GIP are converted to percent inhibition by subtracting nonspecific binding (binding in the presence of excess unlabeled Gcg, GLP-1, or GIP, respectively) from the individual CPM values and dividing by the total binding signal, also corrected by subtracting nonspecific binding. Data are analyzed using four-parameter (curve maximum, curve minimum, IC50, Hill slope) nonlinear regression routines (Genedata Screener, version 12.0.4, Genedata AG, Basal, Switzerland). […] Values for Ki are reported as the geometric mean, with error expressed as the standard error of the mean (SEM) and n is equal to the number of independent replicates (determined in assays performed on different days). Geometric Means are calculated as follows: […]
The Ki Ratio (Ki for native control peptide/Ki for test compound) at each receptor and each species is calculated. The Ki Ratio is a rapid indication of the apparent affinity of a peptide compared to the native control peptide.
n=⅟x means that only one value out of the total number of replicates (x) is used to express the mean. SEM is only calculated when n=2 or greater non-qualified results exist. Means are expressed as GeoMetric means with the standard error of the mean (SEM) and the number of replicates (n) indicated in parenthesis.

Assay [3] concerns the target hGLP-1R (Homo sapiens, UniProt P43220). In words: Functional cAMP formation (HTRF) in HEK-293 clonal cells expressing hGLP-1R, 0.1% bovine casein, without or with 1.0% human serum albumin. It counts as cell-based. Details: expressed in transfected cells. As to conditions: for Emax: percent of maximal response to GLP-1(7-36)NH2; for EC50: 37° C. The procedure, abridged: as §1
(In general: Cyclic AMP is a second messenger, typically raised through Gs and lowered through Gi signalling.)

Assay [4] concerns the target T3, hGIPR (Homo sapiens, UniProt P48546).
T3 construct: expressed in transfected cells
T3 sequence (P48546 22-466): T2 sequence (P48546 22-466)
In words: Functional cAMP formation (HTRF) in HEK-293 clonal cells expressing hGIPR, 0.1% bovine casein, without or with 1.0% human serum albumin. It counts as cell-based. The note with it: for Emax: percent of maximal response to GIP(1-42)NH2; for EC50: geometric mean. In outline: as §1

[5] abbreviates: hGCGR EC50, nM (SEM, n), cAMP, 37° C., 0.1% bovine casein (no human serum albumin), geometric mean.
The mark [6] stands for this setting: hGCGR EC50, nM (SEM, n), cAMP, 37° C., 0.1% bovine casein and 1.0% human serum albumin, geometric mean (SEM, n).
Setting [7] is: HEK293, read-out: hGLP-1R Emax, % ± SEM, cAMP, 37° C., 0.1% bovine casein, arithmetic mean.
[8] abbreviates: hGLP-1R EC50, nM (SEM, n), cAMP, 0.1% bovine casein (no human serum albumin), geometric mean.
The mark [9] stands for this setting: HEK293, read-out: hGIPR Emax, % ± SEM, cAMP, 37° C., 0.1% bovine casein and 1.0% human serum albumin.
[10] abbreviates: hGIPR EC50, nM (SEM, n), cAMP, 37° C., 0.1% bovine casein (no human serum albumin).

Read-outs that look alike come from different tables or passages of the source.

hGLP-1R, sequence (P43220 24-463): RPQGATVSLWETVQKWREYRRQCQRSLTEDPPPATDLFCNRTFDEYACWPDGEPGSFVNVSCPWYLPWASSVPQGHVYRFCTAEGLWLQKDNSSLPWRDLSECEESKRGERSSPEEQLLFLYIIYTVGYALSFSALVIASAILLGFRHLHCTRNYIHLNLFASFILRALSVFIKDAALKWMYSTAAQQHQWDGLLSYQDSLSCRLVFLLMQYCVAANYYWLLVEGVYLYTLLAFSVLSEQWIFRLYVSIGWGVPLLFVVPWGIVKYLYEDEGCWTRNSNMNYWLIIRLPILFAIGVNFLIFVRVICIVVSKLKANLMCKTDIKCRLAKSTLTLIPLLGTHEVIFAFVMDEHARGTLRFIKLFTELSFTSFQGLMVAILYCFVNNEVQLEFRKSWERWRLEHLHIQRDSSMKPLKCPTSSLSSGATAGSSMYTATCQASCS
T1 sequence (P47871 26-477): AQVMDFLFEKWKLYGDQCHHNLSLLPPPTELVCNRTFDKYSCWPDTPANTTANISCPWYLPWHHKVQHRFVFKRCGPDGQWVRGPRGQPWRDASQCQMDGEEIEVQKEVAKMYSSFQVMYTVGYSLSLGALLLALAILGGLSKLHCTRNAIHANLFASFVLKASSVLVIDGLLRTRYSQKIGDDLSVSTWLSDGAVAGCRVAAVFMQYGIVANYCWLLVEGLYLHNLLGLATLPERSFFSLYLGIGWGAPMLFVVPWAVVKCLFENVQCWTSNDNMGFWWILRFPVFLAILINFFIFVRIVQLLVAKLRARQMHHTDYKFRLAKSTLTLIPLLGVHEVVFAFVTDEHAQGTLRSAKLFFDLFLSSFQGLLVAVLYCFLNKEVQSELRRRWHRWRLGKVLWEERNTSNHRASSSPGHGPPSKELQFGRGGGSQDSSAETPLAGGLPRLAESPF

On to `CC[C@H](C)[C@H](NC(=O)[C@H](CC(C)C)NC(=O)[C@](C)(Cc1ccc(O)cc1)NC(=O)[C@H](CCCCNC(=O)COCCOCCNC(=O)COCCOCCNC(=O)COCCOCCNC(=O)CC[C@H](NC(=O)CCCCCCCCCOc1ccc(C(=O)O)cc1)C(=O)O)NC(=O)[C@@H](NC(=O)[C@H](Cc1ccccc1)NC(=O)[C@H](CCC(=O)O)NC(=O)C(C)(C)NC(=O)[C@H](CCC(N)=O)NC(=O)[C@H](C)NC(=O)[C@H](CCC(N)=O)NC(=O)[C@H](CCCN)NC(=O)[C@H](CC(=O)O)NC(=O)[C@H](CC(C)C)NC(=O)[C@](C)(CC(C)C)NC(=O)[C@@H](NC(=O)C(C)(C)NC(=O)[C@H](Cc1ccncc1)NC(=O)[C@H](CC(=O)O)NC(=O)[C@H](CO)NC(=O)[C@@H](NC(=O)[C@](C)(Cc1ccccc1F)NC(=O)[C@@H](NC(=O)CNC(=O)[C@H](CCC(=O)O)NC(=O)C(C)(C)NC(=O)[C@@H](N)Cc1ccc(O)cc1)[C@@H](C)O)[C@@H](C)O)[C@@H](C)CC)[C@@H](C)CC)C(=O)N[C@@H](CCCCNC(=O)COCCOCCNC(=O)COCCOCCNC(=O)COCCOCCNC(=O)CC[C@H](NC(=O)CCCCCCCCCOc1ccc(C(=O)O)cc1)C(=O)O)C(=O)NCC(=O)NCC(=O)N1CCC[C@H]1C(=O)N[C@@H](CO)C(=O)N[C@@H](CO)C(=O)NCC(=O)N[C@@H](C)C(=O)N1CCC[C@H]1C(=O)N1CCC[C@H]1C(=O)N1CCC[C@H]1C(=O)N[C@@H](CO)C(N)=O` [Example 464], for which the half-maximal effective concentration (EC50) in assay [1] (setting [5]) was over 10100 nM; in assay [1] (setting [6]), over 10100 nM; in assay [3] (setting [8]) it was 0.161 nM; in assay [4] (setting [10]), 0.00955 nM. This molecule showed an inhibition constant Ki in assay [2] of 0.0261 nM. Besides, the Emax in assay [3] (setting [7]) turned out to be 114%; in assay [4] (setting [9]), 95.5%.

As for `CC[C@H](C)[C@H](NC(=O)[C@H](CCCN)NC(=O)[C@H](CC(=O)O)NC(=O)[C@H](CC(C)C)NC(=O)[C@](C)(CC(C)C)NC(=O)[C@@H](NC(=O)C(C)(C)NC(=O)[C@H](Cc1ccc(O)cc1)NC(=O)[C@H](CC(=O)O)NC(=O)[C@H](CO)NC(=O)[C@@H](NC(=O)[C@](C)(Cc1ccccc1F)NC(=O)[C@@H](NC(=O)CNC(=O)[C@H](CCC(=O)O)NC(=O)C(C)(C)NC(=O)[C@@H](N)Cc1ccc(O)cc1)[C@@H](C)O)[C@@H](C)O)[C@@H](C)CC)C(=O)N[C@@H](C)C(=O)N[C@@H](CCC(N)=O)C(=O)NC(C)(C)C(=O)N[C@@H](CCCN)C(=O)N[C@@H](Cc1ccccc1)C(=O)N[C@H](C(=O)N[C@@H](CCCCNC(=O)COCCOCCNC(=O)COCCOCCNC(=O)COCCOCCNC(=O)CC[C@H](NC(=O)CCCCCCCCCOc1ccc(C(=O)O)cc1)C(=O)O)C(=O)N[C@@](C)(Cc1ccc(O)cc1)C(=O)N[C@@H](CC(C)C)C(=O)N[C@H](C(=O)N[C@@H](CCCCNC(=O)COCCOCCNC(=O)COCCOCCNC(=O)COCCOCCNC(=O)CC[C@H](NC(=O)CCCCCCCCCOc1ccc(C(=O)O)cc1)C(=O)O)C(=O)NCC(=O)NCC(=O)N1CCC[C@H]1C(=O)N[C@@H](CO)C(=O)N[C@@H](CO)C(=O)NCC(=O)N[C@@H](C)C(=O)N1CCC[C@H]1C(=O)N1CCC[C@H]1C(=O)N1CCC[C@H]1C(=O)N[C@@H](CO)C(N)=O)[C@@H](C)CC)[C@@H](C)CC` [Example 481], the concentration for a half-maximal effect (EC50) is over 9950 nM in assay [1] (setting [5]); over 9950 nM in assay [1] (setting [6]); 0.279 nM in assay [3] (setting [8]); 6.16 nM in assay [3] (hGLP-1R EC50, nM (SEM, n), cAMP, 0.1% bovine casein and 1.0% human serum albumin, geometric mean (SEM, n)); 0.0181 nM in assay [4] (setting [10]). This molecule also gave a Ki in assay [2] of 0.0266 nM. Moreover, the Emax in assay [3] (HEK293, read-out: hGLP-1R Emax, % ± SEM, cAMP, 37° C., 0.1% bovine casein and 1.0% human serum albumin) stood at 112%; in assay [3] (setting [7]), 111%; in assay [4] (setting [9]), 82.7%; in assay [4] (HEK293, read-out: hGIPR Emax, % ± SEM, cAMP, 37° C., 0.1% bovine casein, arithmetic mean) it was 97.9%.

For the molecule `CCCCCCCCCCCCCC(=O)N[C@@H](CCC(=O)NCCOCCOCC(=O)NCCOCCOCC(=O)NCCCC[C@H](NC(=O)CNC(=O)CNC(=O)[C@H](CCC(=O)O)NC(=O)[C@@H](NC(=O)[C@H](CC(C)C)NC(=O)[C@](C)(Cc1ccc(O)cc1)NC(=O)[C@@H](CCC(=O)O)NC(=O)[C@@H](NC(=O)[C@H](Cc1ccccc1)NC(=O)[C@H](CCC(=O)O)NC(=O)C(C)(C)NC(=O)[C@H](CCC(N)=O)NC(=O)[C@H](C)NC(=O)[C@H](CCCCNC(=O)COCCOCCNC(=O)COCCOCCNC(=O)CC[C@H](NC(=O)CCCCCCCCCCCCC)C(=O)O)NC(=O)[C@H](CCCN)NC(=O)[C@H](CC(=O)O)NC(=O)[C@H](CC(C)C)NC(=O)[C@](C)(CC(C)C)NC(=O)[C@@H](NC(=O)[C@H](CO)NC(=O)[C@H](Cc1ccncc1)NC(=O)[C@H](CC(=O)O)NC(=O)[C@H](CO)NC(=O)[C@@H](NC(=O)[C@](C)(Cc1ccccc1F)NC(=O)[C@@H](NC(=O)CNC(=O)[C@H](CCC(=O)O)NC(=O)C(C)(C)NC(=O)[C@@H](N)Cc1ccc(O)cc1)[C@@H](C)O)[C@@H](C)O)[C@@H](C)CC)[C@@H](C)CC)[C@@H](C)CC)C(=O)N[C@@H](CO)C(=O)N[C@@H](CO)C(=O)NCC(=O)N[C@@H](C)C(=O)N1CCC[C@H]1C(=O)N1CCC[C@H]1C(=O)N1CCC[C@H]1C(=O)N[C@@H](CO)C(N)=O)C(=O)O` [Example 8], the 50% effective concentration (EC50) in assay [1] (0.1% bovine casein and 1.0% human serum albumin, 37° C., geometric mean, read-out: hGCGR EC50, nM (SEM, n)) was over 9950 nM; in assay [1] (cAMP, incubated at 37° C., 0.1% bovine casein (no human serum albumin), geometric mean, read-out: hGCGR EC50, nM (SEM, n)) it was over 9950 nM; in assay [3] (0.1% bovine casein and 1.0% human serum albumin, geometric mean, read-out: hGLP-1R EC50, nM (SEM, n)), 8 nM; in assay [4] (0.1% bovine casein and 1.0% human serum albumin, 37° C., read-out: hGIPR EC50, nM (SEM, n)), 0.635 nM. In addition, the Ki in assay [2] (human GIPR, geometric mean (SEM, n), read-out: Binding Affinity Ki, nM (SEM, n) hGIPR) came to 0.024 nM. In addition, the maximum response (Emax) in assay [4] (HEK293, 0.1% bovine casein and 1.0% human serum albumin, 37° C., read-out: hGIPR Emax, % ± SEM) was 91.3 ± 3.11%.

A word on the EC50: it is the concentration that produces a half-maximal response. Broadly, the Ki is the dissociation constant of the complex between target and ligand, obtained from inhibition or displacement. As usually defined, the Emax is the maximal effect, on the per cent scale that the assay sets.
